Laboratory results reported in ChEMBL document CHEMBL1131694, “New minimal substrate structural requirements in the enzymatic peroxidation of alkenes with soybean lipoxygenase” (Bioorg Med Chem Lett, 1999).
Activity calls are given as the source filed them. No cut-off for these calls is given here.

What was measured:
[1] = target: T1, Seed linoleate 13S-lipoxygenase-1 (Glycine max) (UniProt P08170); experiment: Ratio of proximal to distal region oxidation by 1-lipoxygenase isolated from soybean; Ratio of proximal and distal was 35:65
T1 sequence (whole entry): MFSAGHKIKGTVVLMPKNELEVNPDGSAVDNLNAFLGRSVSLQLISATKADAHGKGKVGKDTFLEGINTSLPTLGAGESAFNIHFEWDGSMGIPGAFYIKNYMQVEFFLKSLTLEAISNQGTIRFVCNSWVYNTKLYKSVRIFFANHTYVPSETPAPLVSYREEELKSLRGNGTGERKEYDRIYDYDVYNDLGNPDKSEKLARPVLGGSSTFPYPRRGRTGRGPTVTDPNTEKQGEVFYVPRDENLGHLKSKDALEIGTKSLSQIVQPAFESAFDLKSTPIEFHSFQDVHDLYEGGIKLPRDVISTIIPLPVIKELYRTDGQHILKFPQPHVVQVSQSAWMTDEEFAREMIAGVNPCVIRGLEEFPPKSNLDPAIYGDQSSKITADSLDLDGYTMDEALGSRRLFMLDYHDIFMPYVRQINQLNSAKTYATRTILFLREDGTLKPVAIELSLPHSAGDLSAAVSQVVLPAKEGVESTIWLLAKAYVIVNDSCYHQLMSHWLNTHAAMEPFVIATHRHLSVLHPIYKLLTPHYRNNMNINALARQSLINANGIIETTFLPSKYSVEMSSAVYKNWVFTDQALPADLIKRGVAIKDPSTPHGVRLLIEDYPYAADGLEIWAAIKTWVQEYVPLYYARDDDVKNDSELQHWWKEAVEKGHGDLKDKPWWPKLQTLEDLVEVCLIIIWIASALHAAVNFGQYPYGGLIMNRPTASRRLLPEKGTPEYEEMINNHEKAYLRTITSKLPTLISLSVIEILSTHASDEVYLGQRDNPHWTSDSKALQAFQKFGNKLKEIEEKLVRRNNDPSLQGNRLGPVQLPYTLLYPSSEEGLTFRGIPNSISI

[2] = target: T1, Seed linoleate 13S-lipoxygenase-1 (Glycine max); experiment: Ratio of proximal to distal region oxidation by 1-lipoxygenase isolated from soybean; Ratio of proximal and distal was 87:13
[3] = Partition coefficient (logP); type: physicochemical; conditions: octanol/water
[4] = target: T1, Seed linoleate 13S-lipoxygenase-1 (Glycine max); experiment: Ratio of proximal to distal region oxidation by 1-lipoxygenase isolated from soybean; Ratio of proximal and distal was 10:90
[5] = target: T1, Seed linoleate 13S-lipoxygenase-1 (Glycine max); experiment: Ratio of proximal to distal region oxidation by 1-lipoxygenase isolated from soybean; Ratio of proximal and distal was 1:99
[6] = target: T1, Seed linoleate 13S-lipoxygenase-1 (Glycine max); experiment: Ratio of proximal to distal region oxidation by 1-lipoxygenase isolated from soybean; Ratio of proximal and distal was 99:1
[7] = target: T1, Seed linoleate 13S-lipoxygenase-1 (Glycine max); experiment: Ratio of proximal to distal region oxidation by 1-lipoxygenase isolated from soybean; Ratio of proximal and distal was 76:24
[8] = target: T1, Seed linoleate 13S-lipoxygenase-1 (Glycine max); experiment: Ratio of proximal to distal region oxidation by 1-lipoxygenase isolated from soybean; Ratio of proximal and distal was 25:75
[9] = target: T1, Seed linoleate 13S-lipoxygenase-1 (Glycine max); experiment: Ratio of proximal to distal region oxidation by 1-lipoxygenase isolated from soybean; Ratio of proximal and distal was 50:50
[10] = target: T1, Seed linoleate 13S-lipoxygenase-1 (Glycine max)
[11] = target: T1, Seed linoleate 13S-lipoxygenase-1 (Glycine max); experiment: Ratio of proximal to distal region oxidation by 1-lipoxygenase isolated from soybean; Ratio of proximal and distal was 89:11
[12] = target: T1, Seed linoleate 13S-lipoxygenase-1 (Glycine max); experiment: Ratio of proximal to distal region oxidation by 1-lipoxygenase isolated from soybean; Ratio of proximal and distal was 95:5

## CCCCCCCCC/C=C\C/C=C\CCOC(=O)CCCCC(=O)O
[1]
  Regiospecificity: Ratio of proximal and distal was 35:65

## CCCCCC/C=C\C/C=C\CCOC(=O)CCCCC(=O)O
[2]
  Regiospecificity: Ratio of proximal and distal was 87:13

## CCCCCCCC/C=C\C=C\[C@@H](O)CCO
[3]; read-out: logP
  logP: 4.41

## [N-]=[N+]=NCC/C=C/C=C/[C@@H](O)CCO
[3]; read-out: logP
  logP: 6.1

## CCCCCCCC/C=C\C/C=C\CCOC(=O)COCCO
[4]
  Regiospecificity: Ratio of proximal and distal was 10:90

## CC(C)=CCC/C(C)=C/C/C=C\C/C=C\CCOC(=O)CCCCC(=O)O
[5]
  Regiospecificity: Ratio of proximal and distal was 1:99

## CCCCC/C=C\C/C=C\CCOC(=O)COCCO
[6]
  Regiospecificity: Ratio of proximal and distal was 99:1

## CCCCCCC/C=C\C/C=C\CCOC(=O)CCCCC(=O)O
[7]
  Regiospecificity: Ratio of proximal and distal was 76:24

## CC(C)=CCC/C(C)=C/C/C=C\C/C=C\CCOC(=O)COCCO
[5]
  Regiospecificity: Ratio of proximal and distal was 1:99

## CCCCCCCCCC/C=C\C/C=C\CCOC(=O)CCCCC(=O)O
[8]
  Regiospecificity: Ratio of proximal and distal was 25:75

## CCCCCCCC/C=C\C/C=C\CCOC(=O)CCCCC(=O)O
[9]
  Regiospecificity: Ratio of proximal and distal was 50:50

## CCCCC/C=C\C/C=C\CCCCCCCC(=O)O
[10]
  Regiospecificity: Active

## [N-]=[N+]=NCC/C=C\C/C=C\CCOC(=O)COCCO
[11]
  Regiospecificity: Ratio of proximal and distal was 89:11

## CC(C)=CCC/C(C)=C/C/C=C\C=C\[C@@H](O)CCO
[3]
  logP: 3.7

## CCCCC/C=C\C/C=C\CCOC(=O)CCCCC(=O)O
[12]
  Regiospecificity: Ratio of proximal and distal was 95:5

## CCCC/C=C\C=C\[C@@H](O)CCO
[3]; read-out: logP
  logP: 2.82
